Assay results taken from paper PMC10028264, “Synergistic antifungal interaction of N-(butylcarbamothioyl) benzamide and amphotericin B against Cryptococcus neoformans” (Frontiers in Microbiology, 2023).
Values after ≈ are worked out from the molar mass of the structure shown.

Target: T1, cryptococcal urease (Cryptococcus neoformans, UniProt O13465)
T1 construct: 100 μL of crude protein extract; endogenous in cells; host or cells: Cryptococcus neoformans ATCC 34872, crude lysate (glass-bead lysis, supernatant)
Assay: Urease activity inhibition test (indophenol method, crude protein extract)
Type: biochemical
Conditions: C. neoformans ATCC 34872 crude protein extract; indophenol method
Procedure: Five colonies of C. neoformans were suspended in 100 μL SD broth and inoculated onto SD agar using a Drigalski spreader, and the culture was incubated at 37°C for 48 h. Afterward, all fungal growth was gently scraped and transferred to conical flasks containing 300 mL of SD broth and incubated with shaking (150 rpm) at 37°C for further 48 h. Cells were centrifuged (6,000 × g, 10 min) and washed three times with distilled water. The protein extraction was performed according to [Moller et al. (2016)] with modifications. Briefly, fungal cells were resuspended in 10 mL of chilled lysis buffer consisting of 100 μM Nα-tosyl-L-lysine chloromethyl ketone hydrochloride (TLCK), 1 mM EDTA, 10% glycerol and 0.15 M phosphate-buffered saline (PBS), pH 8.0. […] Then, the cell debris was removed by centrifugation (6,000 × g, 15 min, 4°C), and the protein content of the resulting supernatant was quantified using the […].
The inhibition of urease activity was evaluated by the indophenol method ([Weatherburn, 1967]). […] The reaction mixtures were incubated for further 10 min at 45°C, and the optical density (OD) was measured at 630 nm. Urease inhibition percentage (I%) was calculated according to the equation: I% = 100–(ODBTU–01/ODcontrol) × 100. […]

T1 sequence (O13465 whole entry): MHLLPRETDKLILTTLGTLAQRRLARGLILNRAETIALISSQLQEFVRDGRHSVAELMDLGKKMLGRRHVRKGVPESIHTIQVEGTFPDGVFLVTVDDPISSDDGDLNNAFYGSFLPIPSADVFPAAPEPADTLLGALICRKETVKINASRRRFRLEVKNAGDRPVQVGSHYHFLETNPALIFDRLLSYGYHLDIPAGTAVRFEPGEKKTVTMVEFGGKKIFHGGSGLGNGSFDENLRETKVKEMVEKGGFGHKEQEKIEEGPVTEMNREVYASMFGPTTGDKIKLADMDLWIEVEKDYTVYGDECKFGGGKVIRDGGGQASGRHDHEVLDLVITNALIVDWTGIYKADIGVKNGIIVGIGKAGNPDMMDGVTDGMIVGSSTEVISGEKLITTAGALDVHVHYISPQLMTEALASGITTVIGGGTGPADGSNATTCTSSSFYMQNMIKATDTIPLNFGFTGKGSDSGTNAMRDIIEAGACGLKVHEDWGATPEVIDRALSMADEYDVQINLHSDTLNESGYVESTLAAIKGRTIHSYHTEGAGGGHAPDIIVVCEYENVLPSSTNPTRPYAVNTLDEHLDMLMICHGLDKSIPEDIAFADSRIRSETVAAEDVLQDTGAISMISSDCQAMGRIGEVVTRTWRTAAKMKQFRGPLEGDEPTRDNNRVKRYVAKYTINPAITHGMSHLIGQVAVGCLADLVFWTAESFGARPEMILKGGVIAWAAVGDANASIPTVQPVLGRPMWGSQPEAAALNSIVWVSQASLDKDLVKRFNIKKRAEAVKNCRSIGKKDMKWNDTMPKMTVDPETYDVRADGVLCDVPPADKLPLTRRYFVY

NC(N)=S [thiourea, Thiourea, reference compound]
IC50 urease activity: 38.6 µg/mL (≈ 507 µM)
